Assay results published in ChEMBL document CHEMBL5126658, “Talaropeptins A and B, Tripeptides with an N-trans-Cinnamoyl Moiety from the Marine-Derived Fungus Talaromyces purpureogenus CX11” (2022).
Values after ≈ are worked out from the molar mass of the structure shown.

Columns and labels:
Type in all cases: functional
Fusarium oxysporum = test: Antifungal activity against Fusarium oxysporum ATCC 28856 assessed as fungal growth inhibition incubated for 24 hrs by serial dilution method
Candida albicans = test: Antifungal activity against Candida albicans SC5314 assessed as fungal growth inhibition incubated for 24 hrs by serial dilution method
Cryptococcus neoformans = test: Antifungal activity against Cryptococcus neoformans GOYJ11988 assessed as fungal growth inhibition incubated for 24 hrs by serial dilution method

Row | MIC (Fusarium oxysporum) | MIC (Candida albicans) | MIC (Cryptococcus neoformans) | Compound
1 | 25 µg/mL (≈ 64.9 µM) | 40 µg/mL (≈ 104 µM) | 80 µg/mL (≈ 208 µM) | C[C@@H]1C(=O)N2CCC[C@H]2[C@]2(O)O[C@@](C)(NC(=O)/C=C/c3ccccc3)C(=O)N12
2 | 12.5 µg/mL (≈ 31.1 µM) | 40 µg/mL (≈ 99.6 µM) | 80 µg/mL (≈ 199 µM) | C[C@@H]1C(=O)N2CCC[C@H]2[C@]2(O)O[C@@](CO)(NC(=O)/C=C/c3ccccc3)C(=O)N12
